Measured values taken from patent US20240343760A1, “PEPTIDES FOR CELL-TYPE SPECIFIC TARGETING OF THE RETINA” (Oregon State University, priority 2021, published 2024).
Entries after “also recorded” stand apart in the source; their conditions may differ. Read-outs that look alike come from different tables or passages of the source. Ends that are not written are not given here. TAMRA = 5-(and -6)-carboxytetramethylrhodamine fluorophore, conjugated to the side chain of the C-terminal Cys

Experiments:
661w cone cells [1] = assay: Cell ELISA of phage-displayed peptides on 661w cone cells; format: cell-based, mouse; settings: for binding affinity (OD450) 661w cone cells compared to hARPE19 cells: ratio 661w / hARPE19; for binding to 661w cone cells (cell ELISA, OD450): vs empty bacteriophage control
Protocol: (§1) ARPE19 and 661w cells were seeded a day before the experiment on 96 well plates (10^4 cells/well). On day of experiment, cells were first fixed in 4% paraformaldehyde solution at room temperature for 15 minutes. This was followed by three washes with PBS and then the cells were blocked for 30 minutes at room temperature with 1% BSA in PBS. […] The wells were then washed with 0.1% TBST and individual phage clones were incubated for one hour at room temperature in blocking buffer with gentle rocking. After phage incubation, wells were washed three times with 0.1% TBST to reduce non-specific binding and eliminate weakly bound phages. Biotin-conjugated, mouse anti-M13 phage coat protein primary antibody was added (Thermo Fisher cat. #MA1-34468) at 1:5000 dilution in 0.1% TBST and incubated for 1 hour at room temperature with gentle rocking. The wells were washed three more times with 0.1% TBST and subsequently incubated with poly-HRP streptavidin secondary antibody (Thermo Fisher cat. #N200) at 1:10000 dilution in 0.1% TBST for 1 hour at room temperature. Wells were then washed three times with 0.1% TBST and 3,3′,5,5′-Tetramethylbenzidine (Thermo Fisher) was added to the wells and incubated at room temperature for 5-10 minutes and the reaction was stopped with 0.2 M Sulfuric Acid and absorbance was read at 450 nm using TECAN Infinite200 Pro spectrophotometer (Tecan Group Ltd., Switzerland).
(§2) After identifying 30 novel peptide sequences, top-performing candidates were identified that could target LNPs to the neural retina. Since bacteriophages were eluted from the entire neural retina, the candidates were pre-screened for their ability to bind to the cell of interest, the PRs. Single bacteriophage-peptides were amplified in E. coli, and a cell-based enzyme-linked immunosorbent assay (ELISA) was developed against the 661w mouse cone PR cell line and the hARPE19 cell line as a control. As expected, for most of the bacteriophage-peptide candidates, binding affinities were weaker when tested against RPE cells compared to 661w cone cells. […] However, the binding affinity, as measured by OD450, was close to 2-fold higher when binding to 661w cone cells compared to hARPE19 cells.

hARPE19 cells = assay: Cell ELISA of phage-displayed peptides on hARPE19 cells; format: cell-based; settings: vs empty bacteriophage control
Protocol: as §1, §2

[2] = tested on: PR and RPE/choroid layers; assay: In vivo validation with TAMRA-labelled peptides, intravitreal or subretinal injection
Protocol: (§3) For subretinal injections, mice were topically administered 0.5% proparacaine, 1% tropicamide, and 2.5% phenylephrine and anesthetized with ketamine (100 mg/kg)/xylazine (10 mg/kg). To initiate the injection, 2.5% hypromellose was used to cover the eye and a 30-gauge needle was used to make an incision in the limbus. A glass coverslip was then placed over the eye to allow for visualization of the retina. Going through the scleral incision in the limbus, using a Hamilton syringe with a 33-gauge blunt needle, 1 μL PBS, peptide, or LNP-Cre were delivered to the subretinal space. A 2% fluorescein solution was added to the PBS and LNPs so retinal detachment could be confirmed. For most injections, scleral incisions in the limbus were created nasally and PBS or LNPs were delivered temporally. Intravitreal injections were performed as previously described elsewhere (25). […] For intravitreal injections 1.1 μg (1.5 μL, 741 ng/μL) was injected.
(§4) At specified time points, mouse eyes were enucleated and fixed using 4% paraformaldehyde in PBS overnight at 4° C. Eyes were cryopreserved in 30% sucrose solution for 2 hours prior to embedding in OCT media followed by cryo-sectioning and confocal imaging. Retinal cryo-sections were 12 μm thick and DAPI stained prior to confocal imaging done using TCS SP8 X (Leica Microsystems, Buffalo Grove, IL). Z-stacks (spanned 10 μm with 1 μm interval) were collected using a 40× objective, and maximum intensity projections were used for further analysis.
(§5) All confocal imaging was performed using TCS SP8 X (Leica Microsystems, Buffalo Grove, IL). Z-stacks (spanned 10 μm with 1 μm interval) were collected using a 20× or 40× objective, and maximum intensity projections were used for further analysis.
(§6) For TAMRA quantification from peptide injections, region of interest (ROI) were created for RPE/choroid and PR cell layer for mean fluorescent intensity values. Fold change measurements were compared to TAMRA-only controls. An ordinary one-way ANOVA, with Tukey's correction for multiple comparisons test was used for comparisons between groups (Prism 8 software, GraphPad Software, La Jolla, CA). Data are presented as mean±SEM. A p-value <0.05 was considered as statistically significant.

661w cone cells [3] = assay: Cell internalization of TAMRA-labeled peptides, 661w cone cells; format: cell-based, mouse; settings: 661w cells, TAMRA-conjugated peptide, 30 minutes
Protocol: Approximately 50,000 cells were seeded per well of 8-well μ-Slide (Ibidi, Fitchburg, WI) and incubated with 10 nM and 50 nM TAMRA-labeled peptides for 30 minutes at 37° C. followed by washing with PBS, fixation in 4% Paraformaldehyde for 10 mins at room temperature. Cells were then washed three times, DAPI stained and cover slipped for confocal microscopy imaging. Fluorescence confocal images of cell internalization studies were captured with the same exposure settings and were analyzed for fluorescence intensity using ImageJ (version 1.45; National Institutes of Health, Bethesda, MD). First, the hARPE or 661w cells were outlined and ImageJ calculated the pixel intensity of the different cell treatments with different peptides. At least three images were analyzed for each peptide tested.
TAMRA-conjugated peptides were added to hARPE19 and 661w cells at a 10 nM and 50 nM concentration to evaluate their internalization (FIGS. 2E to 2H and 8A to 8B). After 30 minutes of incubation at 37° C., cells were fixed and DAPI stained for confocal imaging.

[4] = tested on: PR and RPE/choroid layers; settings: mouse, in vivo
Protocol: as §3, §4, §5, §6

| Substance | binding affinity (OD450) 661w cone cells compared to hARPE19 cells (661w cone cells [1]) [fold] | binding to 661w cone cells (cell ELISA, OD450) (661w cone cells [1]) | binding to hARPE19 (RPE) cells (cell ELISA, OD450) (hARPE19 cells) | further results |
| --- | --- | --- | --- | --- |
| ATGPRSV [Peptide 57] | ~2 | high binding | highest affinity | binding to hARPE19 (RPE) cells (cell ELISA, OD450) (hARPE19 cells; listed as MH57): significantly higher binding |
| DGPPRKP [Peptide 3] |  |  | highest affinity |  |
| DGPPRKPGGGSC (DGPPRKPGGGSC(TAMRA); not fully specified) [MH3] |  | reduced binding affinity; also recorded: low-binder | significantly higher binding | retinal localization of TAMRA-labelled peptide (confocal) [2]: poor accumulation in RPE and PRs |
| HLSSLTP [Peptide 54] |  | highest affinity | highest affinity | binding to hARPE19 (RPE) cells (cell ELISA, OD450) (hARPE19 cells; listed as MH54): significantly higher binding |
| LAFHRMP [Peptide 52] | ~2 | highest affinity | highest affinity | binding to 661w cone cells (cell ELISA, OD450) (661w cone cells [1]; listed as MH52): high binding; binding to hARPE19 (RPE) cells (cell ELISA, OD450) (hARPE19 cells; listed as MH52): significantly higher binding |
| MPVAVYR [Peptide 50] |  | highest affinity | highest affinity |  |
| MPVAVYRGGGSC (MPVAVYRGGGSC(TAMRA)) [MH50] | ~2 | high binding; also recorded: high-binders; also recorded: top 2 performing | significantly higher binding | cellular uptake compared to the negative control MH3 (661w cone cells [3]): 4.1 fold; retinal localization of TAMRA-labelled peptide (confocal) [4]: localized to PRs including the outer nuclear layer and inner/outer segments as well as RPE |
| SNLAAFP [Peptide 43] |  | highest affinity |  |  |
| SNLAAFPGGGSC (SNLAAFPGGGSC(TAMRA)) [MH43, peptide 43 with added linker; TAMRA-labelled at carboxy-terminal Cys in cell and in vivo tests] |  | high-binders |  |  |
| SPALHFL [Peptide 42] |  | highest affinity |  |  |
| SPALHFLGGGSC (SPALHFLGGGSC(TAMRA)) [MH42] | ~2 | high binding; also recorded: high-binders; also recorded: top 2 performing | significantly higher binding | cellular uptake compared to the negative control MH3 (661w cone cells [3]): 1.7 fold; clearance of labelled peptide from retina [4]: ≤ 24 h; retinal localization of TAMRA-labelled peptide (confocal) [4]: localized to PRs including the outer nuclear layer and inner/outer segments as well as RPE; timepoint of maximum level of labelled peptide in retina [4]: 6 h |
